From patent US11149230B2, “Process for extracting carboxylic acids produced by anaerobic fermentation from fermentable biomass” (AFYREN, priority 2015, dated 2021)

What was measured:
[1] = test system: optimized anaerobic microbial mix; assay: Test 3: comparison of fermentation in the presence or absence of octanoic acid; type: cell-based; conditions: restoration waste 50 g/l dry matter, initial addition of 0.7 g/l
Description: Two fermentations of grass cuttings/mowings in non-sterile mode, at a concentration of 25 g/l of dry matter, in an anaerobic bioreactor with a working volume of 2 l, operated in mesophilic mode (38° C.), were carried out in parallel for 160 h. In the first experiment, after inoculation of an optimized anaerobic microbial mix, an initial addition of heptanoic acid in an amount of 2.8 g/l was carried out. […] The second fermentation, which is de facto a control culture, was carried out in parallel under the same conditions except for the addition of heptanoic acid.

[2] = test system: optimized anaerobic microbial mix; assay: Test 2: comparison of fermentations in the presence or absence of heptanoic acid; type: cell-based; conditions: grass cuttings/mowings 25 g/l dry matter, 38° C., 160 h, initial addition of 2.8 g/l
Description: Two fermentations of grass cuttings/mowings in non-sterile mode, at a concentration of 25 g/l of dry matter, in an anaerobic bioreactor with a working volume of 2 l, operated in mesophilic mode (38° C.), were carried out in parallel for 160 h. In the first experiment, after inoculation of an optimized anaerobic microbial mix, an initial addition of heptanoic acid in an amount of 2.8 g/l was carried out. This presence of heptanoic acid makes it possible to understand the biocompatible nature of an extraction carried out with this type of solvent. Indeed, the culture medium after extraction is reintroduced into the bioreactor and may contain traces of extraction solvent up to the amount of their solubility threshold. The second fermentation, which is de facto a control culture, was carried out in parallel under the same conditions except for the addition of heptanoic acid.
During these fermentations, liquid-phase and gas-phase metabolite monitorings were carried out. At the end of fermentation, the yields obtained regarding the production of volatile fatty acids is 0.33 g of VFA/g of dry matter in the case of the experiment with the addition of heptanoic acid, and 0.39 g of VFA/g of dry matter for the control fermentation. […]

| Structure (SMILES) | yield of production of volatile fatty acids at the end of fermentation [1] | negative effect on the production of volatile fatty acids versus control fermentation [2] | yield of production of volatile fatty acids at the end of fermentation [2] |
| --- | --- | --- | --- |
| CCCCCCCC(=O)O [octanoic acid, Octanoic acid] | 0.3 g of VFA/g of dry matter | – | – |
| CCCCCCC(=O)O [heptanoic acid, Heptanoic acid] | – | about 15% | 0.33 g of VFA/g of dry matter |
